The values that follow come from patent US20250295686A1, “COMBINATION DECITABINE AND MPS1 INHIBITOR THERAPY TO PRIME CANCER IMMUNOGENICITY” (Dana-Farber Cancer Institute, Inc., priority 2021, published 2025).

“Also recorded” adds a separate entry of the source.

The test system of assay [1] is STING pathway. The experiment in a line: Immunoblot of STING downstream signaling in H1944 cells treated with MPS1 inhibitors. The class given is cell-based, human. Conditions: 100 nM BAY-1217389, 250 nM CC-671, compared with 200 nM CFI-402257. On the procedure:
It was also shown that MPS1 inhibitor-induced cellular cytotoxicity was dependent upon intact STING and STAT1 (FIG. 3K).
On the other hand, reconstitution of STING in STING^absent KL cells such as A549 and H23 cells also sensitized them to MPS1 inhibition, leading to CXCL10 secretion and STAT1 activation (FIGS. 3J, 4H). It was determined that MPS1 inhibitor-induced cellular cytotoxicity and growth arrest in KL cells required activation of STING signaling following 48-hour pulse treatment, and to a lesser degree during continuous 96 hour SAC inhibition, which is also capable of arresting KP cells (FIGS. 3K, 4I-4K). […] Phosphorylation of TBK1 and IFN-β secretion, which are upstream of IFNAR1, were also attenuated by IFNAR1 depletion (FIGS. 3L, 4M, and 4N).
(§1) Cells were lysed in RIPA buffer containing 1× protease inhibitors (Roche, Cat #11-836-145-001) and phosphatase inhibitors (50 mmol/L NaF and 100 mmol/L Na3VO4). […] Imaging of blots and quantitation of bands was performed using the LICOR Odyssey system, or LAS-3000 (Fujifilm).

Assay [2] concerns 393P-KL cells. The assay is described as follows: Efficacy studies in 393P-KL syngeneic model (129S2/SvPasCrl mice). The settings on record: after 12 weeks; decitabine day 1-7 and/or BAY-1217389 day 8, 9, 21, 22; durable response = tumor volume less than 250 mm^3 for at least 50 days after treatment. It counts as in vivo, mouse. The protocol:
To test this, an efficacy study was performed utilizing the same short-term pulse regimen of the sequential therapy with DAC/MPS1i in 393P-KL syngeneic model. […] Additionally, to further assess the role of an intact immune system, immune-deficient NSG mice were used.

Assay [3] relates to H1944 cells. The experiment in a line: Cell viability assay to determine an IC50 (CellTiter-Glo). It counts as cell-based, human. From the text: Due to their particular hypersensitivity, H1944 cells were utilized as a model system in which to conduct an unbiased screen of cytotoxic chemotherapies or targeted DNA-damaging agents for their ability to upregulate endogenous 2′3′-cGAMP production following pulse treatment, including cGAS-deficient H2122 cells as a counter-screen (FIGS. 3A and 3B). […] Additionally, hydroxyurea or nocodazole were included as controls to induce S-phase or M-phase cell cycle arrest. The IC50 was identified for each compound for cell viability in H1944 cells, and this concentration was utilized for the screen (FIG. 4A and Table 1). It was shown that each agent induced cellular cytotoxicity and/or DNA-damage response at this concentration, as measured by the induction of propidium iodide positive cells, cleaved PARP fragments, or histone TH2A.X expression (FIGS. 4B and 4C).
3000 cells were plated onto 96-well plates, and then cultured for 72 hours in the presence of each DNA-damaging agent at the indicated concentration. Values of CellTiter-Glo Luminescent Cell Viability assay (Promega) […] were normalized to vehicle treated cells. Plates were read on a Tecan Infinite M200 Pro plate reader and analysis was performed using Prism7 (GraphPad Software). All conditions were tested in triplicate.
(In general: ATP-based viability assays read luminescence as a measure of living cells.)

Assay [4] deals with STING pathway. The experiment in a line: Pre-treatment with epigenetic inhibitor followed by pulse MPS1i in STING^Low KL cells (ELISA, immunoblot, immunofluorescence). The class given is cell-based, human.
Source text: However, since KL cells epigenetically silence STING, unleashing STING expression might robustly sensitize them to MPS1 inhibition, including cell lines with baseline STING absence. Pre-treatment with the EZH2 inhibitor GSK126, which is able to de-repress STING in STING^Low KL cells lines, H1944, and H1355 cells, was explored (Kitajima et al., 2019) (FIGS. 8B and 8C).
(§2) Human IFN-β (Thermo Fisher Scientific, Cat. #414101), human CXCL10 (R&D systems, Cat. #DIP100), mouse CXCL10 (R&D systems, Cat. #DY466), and 2′3′-cGAMP (Cayman Chemical, Cat. #501700) ELISAs were performed according to the manufacturer's instructions. Conditioned media from each cell lines was collected after 24 hour culture. Values represent the average of four replicates from at least two independent experiments (biological replicates).
as §1
After being grown on chamber slides (CellTreat, Cat #229168) and subjected to various treatment conditions, cells were fixed and permeabilized according to standard protocols. […] Slides were imaged with the Nikon Eclipse 80i microscope, and colocalization was determined using CoLoc2 in ImageJ.
On the technique in general: An ELISA detects its analyte on a solid surface through an enzyme-linked reagent.

The subject of assay [5] is H1944 cells. The assay is described as follows: Cell cycle analysis through propidium iodide staining. The settings on record: 48 hours, 200 nM CFI-402257, 2.5 μM cisplatin, 5 μM etoposide, 500 nM pemetrexed, 50 μM hydroxyurea. It counts as cell-based, human. An excerpt:
For cell cycle analysis, cells were stained by BD CycleTEST™ Plus DNA according to the manufacturer's instructions, and then analyzed by FACSCanto 11 (BD Biosciences). For cell viability analysis, cells were stained by propidium iodide (PI) according to the manufacturer's instructions of Annexin V using Alexa Fluor 488 Annexin V dead cell apoptosis kit (Thermo Fisher Scientific, Cat. #V13245) and then analyzed by FACSCanto 11 (BD Biosciences).

The subject of assay [6] is KL NSCLC cell lines. The assay is described as follows: CXCL10 ELISA after exogenous CDN exposure, KL NSCLC cell lines. It counts as cell-based, human. The settings on record: 24 hours.
Source text: Treatment with 2′3′-cGAMP or ADU-S100 was utilized to examine the sensitivity of KP or KL NSCLC cell lines to exogenous CDN exposure. […] KL cell response to extracellular CDNs was still modest as compared with endothelial cells (HUVEC) or monocytic THP-1 cells, which also have different membrane permeabilities (FIG. 2C) (Cordova et al., 2021; Luteijn et al., 2019; Ritchie et al., 2019).
as §2

Setting [7] is: Homo sapiens, NCI-H1944, 72 hours with drug.

The term IC50 denotes the midpoint of a concentration-inhibition curve. High values mean lower potency, low ones higher potency.

Regarding `COc1ccc(Oc2cc(NCCC(F)(F)F)c3ncc(-c4ccc(C(=O)NC5CC5)c(C)c4)n3n2)c(F)c1F` [BAY-1217389], in assay [1], the “STING downstream signaling, cGAS-dependent (immunoblot)” value is “upregulated to the same extent; also recorded: induced similar cGAS dependent activation of STING signaling”. Also, the “durable, long-term response” value in assay [2] stood at 0 mice.

As for `COc1cccc(OCCCN)c1-c1cc(Nc2cnc(C#N)cn2)n[nH]1` [prexasertib], in assay [3] (setting [7]), the IC50 worked out at 11.3 nM.

In the case of `COC(=O)Nc1nc2ccc(C(=O)c3cccs3)cc2[nH]1` [nocodazole], half-maximal inhibition in assay [3] (setting [7]) (IC50) was put at 60.1 nM.

For the molecule `CC[C@H](C)n1cc(C)c2c(C(=O)NCc3c(C)cc(C)[nH]c3=O)cc(-c3ccc(N4CCNCC4)nc3)cc21` [GSK126], in assay [4] (H1944 cells, 5 μM GSK126 combination with 200 nM CFI-402257), the STING levels entry is on record as “upregulated STING levels”. Also, in assay [4] (H1944 or H1355 cells, 5 μM GSK126 pre-treatment, then 200 nM CFI-402257 or 100 nM BAY-1217389), the “CXCL10 and IFN-β secretion induced by pulse MPS1i treatment after pre-treatment” value is “markedly enhanced”.

On to `CCC1=C[C@@H]2CN(C1)Cc1c([nH]c3ccccc13)[C@@](C(=O)OC)(c1cc3c(cc1OC)N(C)[C@H]1[C@@](O)(C(=O)OC)[C@H](OC(C)=O)[C@]4(CC)C=CCN5CC[C@]31[C@@H]54)C2` [vinorelbine], for which the half-inhibitory concentration (IC50) in assay [3] (setting [7]) came to 22.2 nM.

For `N.N.[Cl][Pt][Cl]` [cisplatin], in assay [5], the cell cycle status result is “strongly induced G2/M-arrest”. Further, the IC50 in assay [3] (72 hours with drug) was found to be 3270 nM.

With `C=CCn1c(=O)c2cnc(Nc3ccc(N4CCN(C)CC4)cc3)nc2n1-c1cccc(C(C)(C)O)n1` [MK1775], the IC50 in assay [3] (setting [7]) is 68.5 nM.

On to `COc1cc([C@@H]2c3cc4c(cc3[C@@H](O[C@@H]3O[C@@H]5CO[C@@H](C)O[C@H]5[C@H](O)[C@H]3O)[C@H]3COC(=O)[C@H]23)OCO4)cc(OC)c1O` [etoposide], for which half-maximal inhibition in assay [3] (setting [7]) (IC50) was put at 4720 nM.

`CN(Cc1cnc2nc(N)nc(N)c2n1)c1ccc(C(=O)N[C@@H](CCC(=O)O)C(=O)O)cc1` [methotrexate] returned a concentration for half-maximal inhibition (IC50) in assay [3] (setting [7]) of 160 nM.

On to `CNC(=O)c1ccc(Nc2nc(OC3CCCC3)c3c(-c4ccc5nc(C)oc5c4)c[nH]c3n2)c(OC)c1` [CC-671], for which the “STING downstream signaling, cGAS-dependent (immunoblot)” value in assay [1] is “upregulated to the same extent; also recorded: induced similar cGAS dependent activation of STING signaling”.

The molecule `C[C@@H]1COCCN1c1cc(C2([S@](C)(=N)=O)CC2)nc(-c2cc[nH]c3nccc2-3)n1` [ceralasertib] displayed an IC50 in assay [3] (setting [7]) of 1080 nM.

For the molecule `Nc1nc2[nH]cc(CCc3ccc(C(=O)N[C@@H](CCC(=O)O)C(=O)O)cc3)c2c(=O)[nH]1` [pemetrexed], the cell cycle status entry in assay [5] was “induced S-phase arrest”. In assay [3] (setting [7]), this molecule displayed an IC50 of 612 nM.

Regarding `Cc1cc(-c2cnn3c(NC[C@H]4C[C@@](C)(O)C4)cc(Oc4cccnc4)nc23)ccc1C(=O)NC1CC1` [CFI-402257], in assay [3] (setting [7]), the IC50 worked out at 254 nM.

`Nc1ncn([C@H]2C[C@H](O)[C@@H](CO)O2)c(=O)n1` [decitabine]: the “durable, long-term response” value in assay [2] is given as 2/8.

In the case of `NC(=O)NO` [hydroxyurea], the cell cycle status result in assay [5] was “induced S-phase arrest”. The same molecule yielded a concentration for half-maximal inhibition (IC50) in assay [3] (setting [7]) of 34600 nM.

As for `Nc1nc2c(ncn2[C@@H]2O[C@@H]3COP(=O)(O)O[C@H]4[C@@H](O)[C@H](n5cnc6c(N)ncnc65)O[C@@H]4COP(=O)(O)O[C@@H]2[C@@H]3O)c(=O)[nH]1` [2′3′-cGAMP, 2′3′-cyclic GMP-AMP], the “CXCL10 secretion, STING^Absent KL cell lines” value in assay [6] (A549, H23, A427, up to 100 μM) is given as “failed to respond”. Moreover, the “CXCL10 secretion, STING^Low KL cells” value in assay [6] (H1944, H2122, H647, H1355, 3.125-100 μM) is “dose-dependent manner”.

The molecule `O=C(O)[C@]1(Cc2cccc(Nc3nccs3)n2)CC[C@@H](Oc2cccc(Cl)c2F)CC1` [MK5108] registered an IC50 in assay [3] (setting [7]) of 3920 nM.

As for `CC[C@@H]1C(=O)N(C)c2cnc(Nc3ccc(C(=O)N[C@H]4CC[C@H](N5CCN(CC6CC6)CC5)CC4)cc3OC)nc2N1C(C)C` [volasertib], the IC50 in assay [3] (setting [7]) was found to be 8.46 nM.

In the case of `O=C(c1cc(Cc2n[nH]c(=O)c3ccccc23)ccc1F)N1CCN(C(=O)C2CC2)CC1` [olaparib], it took 27700 nM to reach half-maximal inhibition in assay [3] (setting [7]) (IC50).

In assay [3] (setting [7]), `CCN(CCCOc1ccc2c(Nc3cc(CC(=O)Nc4cccc(F)c4)n[nH]3)ncnc2c1)CCOP(=O)(O)O` [barasertib] showed an IC50 of 160 nM.
